In EPA's ToxValDB 9.5 (doi:10.2903/j.efsa.2006.69r):

Experiments:
[1] = tested on: Aphidius rhopalosiphi; experiment: LR50; higher = less toxic; settings: not reported; mortality
[2] = tested on: Canidae; settings: oral, Dog Other, neurology
[3] = tested on: Tagia sp.
[4] = subchronic; duration: 56 days
[5] = tested on: Pimephales promelas; settings: chronic/long-term; duration: 32 days
[6] = tested on: Brassica rapa; settings: acute; duration: 21 days; seedling emergence
[7] = tested on: Rattus norvegicus; settings: for LD50: acute
[8] = tested on: Anas platyrhynchos
[9] = tested on: Apis mellifera; settings: acute, mortality
[10] = tested on: Lepomis macrochirus; settings: acute; duration: 96 hours; mortality
[11] = tested on: Colinus virginianus; settings: short-term; oral; diet; reproduction
[12] = tested on: Daphnia magna; settings: chronic/long-term; duration: 21 days
[13] = short-term, oral, feed, mortality

## CNC(=O)Oc1cccc(N=CN(C)C)c1.Cl [Formetanate hydrochloride]
[1]
  LR50: 0.21 g/ha
[2]; chronic, duration: 1 years
  NOAEL: 0.4 mg/kg-day
[2]; short-term, duration: 29 days
  NOAEL: 0.4 mg/kg-day
[3]; acute, duration: 14 days, mortality
  LC50: 1050 mg/kg
[3]; chronic/long-term
  NOEC: 1.8 mg/kg
[4]
  NOAEC: 0.703 mg/L
[5]
  NOEC: 0.48 mg/L
[6]
  NOEC: > 500 g/ha
[7]; oral, F, mortality
  LD50: 14.8 mg/kg
[7]; oral, M/F, mortality
  LD50: 21 mg/kg
[7]; reproduction developmental, mortality
  NOEL: 22.4 mg/kg-day
[7]; short-term, duration: 28 days, oral, gavage, F, clinical chemistry
  NOAEL: 0.5 mg/kg-day
[8]; acute, oral, unspecified, mortality
  LD50: 11.5 mg/kg
[8]; reproductive
  NOEC: 15.6 mg/kg-day
[8]; [13]
  LC50: 116 mg/kg-day
  NOEC: 22.7 mg/kg-day
[9]; dermal
  LD50: 1.02 µg/piece
[9]; duration: 48 hours, oral, unspecified
  LD50: 0.16 µg/piece
[10]
  LC50: 2.76 µg/mL
[11]
  NOEC: 15.6 mg/kg-day
[12]
  NOEC: 0.0011 mg/L
